Measurements published in BindingDB's records for doi:10.1021/jm501113m (Duquesne University, 2014).

Assays:
[1] = Inhibition of FRbeta (unknown origin) expressed in Chinese hamster D4 cells assessed as cell growth inhibition incubated up to 96 hrs by Celltiter-blue cell viability assay
[2] = Inhibition of RFC (unknown origin) expressed in Chinese hamster PC43-10 cells assessed as cell growth inhibition incubated up to 96 hrs by Celltiter-blue cell viability assay
[3] = Inhibition of FRalpha (unknown origin) expressed in Chinese hamster RT16 cells assessed as cell growth inhibition incubated up to 96 hrs by Celltiter-blue cell viability assay
[4] = Inhibition of PCFT (unknown origin) expressed in Chinese hamster R2/PCFT4 cells assessed as cell growth inhibition incubated up to 96 hrs by Celltiter-blue cell viability assay
[5] = Inhibition of FRbeta (unknown origin) expressed in Chinese hamster D4 cells assessed as cell growth inhibition incubated up to 96 hrs in presence of 200 nM folic acid by Celltiter-blue cell viability assay
[6] = Inhibition of FRalpha (unknown origin) expressed in Chinese hamster RT16 cells assessed as cell growth inhibition incubated up to 96 hrs in presence of 200 nM folic acid by Celltiter-blue cell viability assay

In the case of `Nc1nc2[nH]c(CCCc3ccc(C(=O)N[C@@H](CCCC(=O)O)C(=O)O)s3)cc2c(=O)[nH]1`, the IC50 [1] is reported as 0.0036 µM, the IC50 [2] is reported as greater than 1 µM and the IC50 [3] is reported as 0.0095 µM. The IC50 [4] was greater than 1 µM, the IC50 [5] was greater than 1 µM and the IC50 [6] was greater than 1 µM.
`CCC[C@H](NC(=O)c1ccc(CCCc2cc3c(=O)[nH]c(N)nc3[nH]2)s1)C(=O)O` showed an IC50 [1] greater than 1 µM, an IC50 [2] greater than 1 µM and an IC50 [3] of 0.056 µM. For the same compound, the IC50 [4] was greater than 1 µM, the IC50 [5] was greater than 1 µM and the IC50 [6] was greater than 1 µM.
Work on `Nc1nc2[nH]c(CCCc3ccc(C(=O)NCCCC(=O)O)s3)cc2c(=O)[nH]1` yielded an IC50 [1] greater than 1 µM, an IC50 [2] greater than 1 µM and an IC50 [3] of 0.027 µM. The IC50 [4] was greater than 1 µM, the IC50 [5] was greater than 1 µM and the IC50 [6] was greater than 1 µM.
Compound `Nc1nc2[nH]c(CCCc3ccc(C(=O)N[C@@H](CC(=O)O)C(=O)O)s3)cc2c(=O)[nH]1` has an IC50 [1] of 0.347 µM, an IC50 [2] greater than 1 µM and an IC50 [3] of 0.0066 µM. For the same compound, the IC50 [4] was greater than 1 µM, the IC50 [5] was greater than 1 µM and the IC50 [6] was greater than 1 µM.
`Nc1nc2[nH]c(CCCc3ccc(C(=O)O)s3)cc2c(=O)[nH]1` gave an IC50 [1] greater than 1 µM, an IC50 [2] greater than 1 µM and an IC50 [3] of 0.661 µM. For the same compound, the IC50 [4] was greater than 1 µM, the IC50 [5] was greater than 1 µM and the IC50 [6] was greater than 1 µM.
